Measurements published in patent US8658791B2, “2-substituted-6-amino-5-alkyl, alkenyl or alkynyl-4-pyrimidinecarboxylic acids and 6-substituted-4-amino-3-alkyl, alkenyl or alkynyl picolinic acids and their use as herbicides” (Dow AgroSciences, LLC, priority 2007, dated 2014).
Counter-ions that a name gives are not always drawn. Values belong to the compound of their own block, whether it stands above or below them.

Key:
[1] = test system: wild poinsettia (Euphorbia heterophylla); experiment: General postemergence herbicidal activity, EPHHL; assay type: in vivo; settings: postemergence spray, visual score after 14 days, 0 = no injury, 100 = complete kill; for pest or weed control at 280 g/ha / pest or weed control at 140 g/ha: Euphorbia heterophylla, post-emergence, 336 h, read-out: Post-emergent Weed Control EPHHL; for pest or weed control at 280 g/ha: 280 g ai/ha; for pest or weed control at 140 g/ha: 140 g ai/ha
Protocol: (§1) Seeds or nutlets of the desired test plant species were planted in Sun Gro MetroMix® 306 planting mixture, which typically has a pH of 6.0 to 6.8 and an organic matter content of about 30 percent, in plastic pots with a surface area of 103 square centimeters. When required to ensure good germination and healthy plants, a fungicide treatment and/or other chemical or physical treatment was applied. The plants were grown for 7-21 days in a greenhouse with an approximate 15 hour photoperiod which was maintained at about 23-29° C. during the day and 22-28° C. during the night. Nutrients and water were added on a regular basis and supplemental lighting was provided with overhead metal halide 1000-Watt lamps as necessary. The plants were employed for testing when they reached the first or second true leaf stage.
(§2) A weighed amount, determined by the highest rate to be tested, of each test compound was placed in a 25 mL glass vial and was dissolved in 4 mL of a 97:3 v/v (volume/volume) mixture of acetone and dimethyl sulfoxide (DMSO) to obtain concentrated stock solutions. […] The concentrated stock solutions obtained were diluted with 20 mL of an aqueous mixture containing acetone, water, isopropyl alcohol, DMSO, Atplus 411F crop oil concentrate, and Triton® X-155 surfactant in a 48.5:39:10:1.5:1.0:0.02 v/v ratio to obtain spray solutions containing the highest application rates. Additional application rates were obtained by serial dilution of 12 mL of the high rate solution into a solution containing 2 mL of 97:3 v/v (volume/volume) mixture of acetone and dimethyl sulfoxide (DMSO) and 10 mL of an aqueous mixture containing acetone, water, isopropyl alcohol, DMSO, Atplus 411F crop oil concentrate, and Triton X-155 surfactant in a 48.5:39:10:1.5:1.0:0.02 v/v ratio to obtain 1/2X, 1/4X, 1/8X and 1/16X rates of the high rate. Compound requirements are based upon a 12 mL application volume at a rate of 187 L/ha. Formulated compounds were applied to the plant material with an overhead Mandel track sprayer equipped with a 8002E nozzles calibrated to deliver 187 L/ha over an application area of 0.503 square meters at a spray height of 18 inches (43 cm) above the average plant canopy height. Control plants were sprayed in the same manner with the solvent blank.
(§3) The treated plants and control plants were placed in a greenhouse as described above and watered by sub-irrigation to prevent wash-off of the test compounds. After 14 days, the condition of the test plants as compared with that of the untreated plants was determined visually and scored on a scale of 0 to 100 percent where 0 corresponds to no injury and 100 corresponds to complete kill.

[2] = test system: barnyardgrass (Echinochloa crus-galli); experiment: General postemergence herbicidal activity, ECHCG; assay type: in vivo; settings: postemergence spray, visual score after 14 days, 0 = no injury, 100 = complete kill; for pest or weed control at 280 g/ha / pest or weed control at 140 g/ha: Echinochloa crus-galli, post-emergence, 336 h, read-out: Post-emergent Weed Control ECHCG; for pest or weed control at 280 g/ha: 280 g ai/ha; for pest or weed control at 140 g/ha: 140 g ai/ha
Protocol: as §1, §2, §3

[3] = test system: velvetleaf (Abutilon theophrasti); experiment: General postemergence herbicidal activity, ABUTH; assay type: in vivo; settings: postemergence spray, visual score after 14 days, 0 = no injury, 100 = complete kill; for pest or weed control at 280 g/ha / pest or weed control at 140 g/ha: Abutilon theophrasti, post-emergence, 336 h, read-out: Post-emergent Weed Control ABUTH; for pest or weed control at 280 g/ha: 280 g ai/ha; for pest or weed control at 140 g/ha: 140 g ai/ha
Protocol: as §1, §2, §3

[4] = test system: lambsquarter (Chenopodium album); experiment: General postemergence herbicidal activity, CHEAL; assay type: in vivo; settings: postemergence spray, visual score after 14 days, 0 = no injury, 100 = complete kill; for pest or weed control at 280 g/ha / pest or weed control at 140 g/ha: Chenopodium album, post-emergence, 336 h, read-out: Post-emergent Weed Control CHEAL; for pest or weed control at 280 g/ha: 280 g ai/ha; for pest or weed control at 140 g/ha: 140 g ai/ha
Protocol: as §1, §2, §3

[5] = test system: rice (Oryza sativa); experiment: General postemergence herbicidal activity, ORYSA; assay type: in vivo; settings: postemergence spray, visual score after 14 days, 0 = no injury, 100 = complete kill; for plant injury at 280 g/ha / plant injury at 140 g/ha: Oryza sativa, post-emergence, 336 h, read-out: Post-emergent Weed Control ORYSA; for plant injury at 280 g/ha: 280 g ai/ha; for plant injury at 140 g/ha: 140 g ai/ha
Protocol: as §1, §2, §3

- melting point: 164 to 167 °C
SMILES: C=Cc1c(N)nc(-c2ccc(Cl)cc2)nc1C(=O)OC [Compound 6, 6-Amino-2-(4-chlorophenyl)-5-vinylpyrimidine-4-carboxylic acid methyl ester]
- pest or weed control at 280 g/ha [1]: 70%
- pest or weed control at 280 g/ha [2]: 80%
- pest or weed control at 280 g/ha [3]: 100%
- pest or weed control at 280 g/ha [4]: 90%
- plant injury at 280 g/ha [5]: 0%

- melting point: 144 to 148 °C
SMILES: C=Cc1c(N)nc(-c2ccc(Cl)c(OC)c2)nc1C(=O)OC [Compound 7, 6-Amino-2-(4-chloro-3-methoxyphenyl)-5-vinylpyrimidine-4-carboxylic acid methyl ester]
- pest or weed control at 280 g/ha [1]: 70%
- pest or weed control at 280 g/ha [2]: 0%
- pest or weed control at 280 g/ha [3]: 60%
- pest or weed control at 280 g/ha [4]: 95%
- plant injury at 280 g/ha [5]: 0%

- melting point: 161 to 164 °C
SMILES: C=Cc1c(N)nc(-c2cc(OC)c(Cl)cc2F)nc1C(=O)OC [Compound 8, 6-Amino-2-(4-chloro-2-fluoro-5-methoxyphenyl)-5-vinylpyrimidine-4-carboxylic acid methyl ester]
- pest or weed control at 280 g/ha [1]: 50%
- pest or weed control at 280 g/ha [2]: 100%
- pest or weed control at 280 g/ha [3]: 100%
- pest or weed control at 280 g/ha [4]: 100%
- plant injury at 280 g/ha [5]: 0%

SMILES: COC(=O)c1nc(-c2ccc(Cl)c(OC)c2F)nc(N)c1C(F)F [Compound 35, 6-Amino-2-(4-chloro-2-fluoro-3-methoxy-phenyl)-5-difluoromethylpyrimidine-4-carboxylic acid methyl ester]
- pest or weed control at 280 g/ha [1]: 90%
- pest or weed control at 280 g/ha [2]: 0%
- pest or weed control at 280 g/ha [3]: 75%
- pest or weed control at 280 g/ha [4]: 85%
- plant injury at 280 g/ha [5]: 0%

SMILES: COC(=O)c1nc(-c2ccc(Cl)c(OC)c2F)cc(N)c1C(F)F [Compound 36, 4-Amino-6-(4-chloro-2-fluoro-3-methoxyphenyl)-3-difluoromethylpyridine-2-carboxylic acid methyl ester]
- pest or weed control at 280 g/ha [1]: 95%
- pest or weed control at 280 g/ha [2]: 95%
- pest or weed control at 280 g/ha [3]: 100%
- pest or weed control at 280 g/ha [4]: 95%
- plant injury at 280 g/ha [5]: 0%

SMILES: COC(=O)c1nc(-c2ccc(Cl)c(OC)c2F)nc(N)c1/C=C/Br [Compound 37, 6-Amino-5-((E)-2-bromovinyl)-2-(4-chloro-2-fluoro-3-methoxyphenyl)pyrimidine-4-carboxylic acid methyl ester]
- pest or weed control at 280 g/ha [1]: 90%
- pest or weed control at 280 g/ha [2]: 0%
- pest or weed control at 280 g/ha [3]: 80%
- pest or weed control at 280 g/ha [4]: 90%
- plant injury at 280 g/ha [5]: 10%

SMILES: COC(=O)c1nc(-c2ccc(Cl)c(OC)c2F)nc(N)c1/C=C/SC [Compound 38, 6-Amino-2-(4-chloro-2-fluoro-3-methoxyphenyl)-5-((E)-2-methylsulfanylvinyl)pyrimidine-4-carboxylic acid methyl ester]
- pest or weed control at 280 g/ha [1]: 100%
- pest or weed control at 280 g/ha [2]: 60%
- pest or weed control at 280 g/ha [3]: 90%
- pest or weed control at 280 g/ha [4]: 100%
- plant injury at 280 g/ha [5]: 0%

SMILES: COC(=O)c1nc(-c2ccc(Cl)c(OC)c2F)nc(N)c1C(C)F (stereo not drawn) [Compound 39, 6-Amino-2-(4-chloro-2-fluoro-3-methoxyphenyl)-5-(1-fluoroethyl)pyrimidine-4-carboxylic acid methyl ester]
- pest or weed control at 140 g/ha [1]: 85%
- pest or weed control at 140 g/ha [2]: 30%
- pest or weed control at 140 g/ha [3]: 80%
- pest or weed control at 140 g/ha [4]: 60%
- plant injury at 140 g/ha [5]: 0%

SMILES: C=Cc1c(N)nc(-c2ccc(Cl)c(OC(F)F)c2F)nc1C(=O)O [Compound 50, 6-Amino-2-(4-chloro-3-difluoromethoxy-2-fluorophenyl)-5-vinylpyrimidine-4-carboxylic acid]
- pest or weed control at 280 g/ha [1]: 100%
- pest or weed control at 280 g/ha [2]: 100%
- pest or weed control at 280 g/ha [3]: 95%
- pest or weed control at 280 g/ha [4]: 100%
- plant injury at 280 g/ha [5]: 45%

SMILES: C=Cc1c(N)nc(-c2ccc(Cl)c(N(C)C)c2F)nc1C(=O)O [Compound 51, 6-Amino-2-(4-chloro-3-dimethylamino-2-fluorophenyl)-5-vinylpyrimidine-4-carboxylic acid]
- pest or weed control at 140 g/ha [1]: 90%
- pest or weed control at 140 g/ha [2]: 95%
- pest or weed control at 140 g/ha [3]: 100%
- pest or weed control at 140 g/ha [4]: 100%
- plant injury at 140 g/ha [5]: 60%

SMILES: C=C(F)c1c(N)nc(-c2ccc(Cl)c(OC)c2F)nc1C(=O)O [Compound 52, 6-Amino-2-(4-chloro-2-fluoro-3-methoxyphenyl)-5-(1-fluorovinyl)pyrimidine-4-carboxylic acid]
- pest or weed control at 140 g/ha [1]: 100%
- pest or weed control at 140 g/ha [2]: 90%
- pest or weed control at 140 g/ha [3]: 95%
- pest or weed control at 140 g/ha [4]: 95%
- plant injury at 140 g/ha [5]: 65%

SMILES: CCc1c(N)nc(-c2ccc(Cl)c(OC)c2F)nc1C(=O)O [Compound 54, 6-Amino-2-(4-chloro-2-fluoro-3-methoxyphenyl)-5-ethylpyrimidine-4-carboxylic acid]
- pest or weed control at 280 g/ha [1]: 100%
- pest or weed control at 280 g/ha [2]: 90%
- pest or weed control at 280 g/ha [3]: 90%
- pest or weed control at 280 g/ha [4]: 100%
- plant injury at 280 g/ha [5]: 0%

SMILES: C#Cc1c(N)nc(-c2ccc(Cl)c(OC)c2F)nc1C(=O)O [Compound 56, 6-Amino-2-(4-chloro-2-fluoro-3-methoxyphenyl)-5-ethynylpyrimidine-4-carboxylic acid]
- pest or weed control at 140 g/ha [1]: 90%
- pest or weed control at 140 g/ha [2]: 75%
- pest or weed control at 140 g/ha [3]: 80%
- pest or weed control at 140 g/ha [4]: 95%
- plant injury at 140 g/ha [5]: 0%

SMILES: COc1c(Cl)ccc(-c2cc(N)c(C)c(C(=O)O)n2)c1F [Compound 58, 4-Amino-6-(4-chloro-2-fluoro-3-methoxyphenyl)-3-methylpyridine-2-carboxylic acid]
- pest or weed control at 280 g/ha [1]: 90%
- pest or weed control at 280 g/ha [2]: 50%
- pest or weed control at 280 g/ha [3]: 90%
- pest or weed control at 280 g/ha [4]: 50%
- plant injury at 280 g/ha [5]: 0%

SMILES: C=Cc1c(N)nc(-c2ccc(Cl)c(OC)c2F)nc1C(=O)O [Compound 63, triethylamine salt of 6-amino-2-(4-chloro-2-fluoro-3-methoxyphenyl)-5-vinylpyrimidine-4-carboxylic acid]
- Post-emergent Weed Control EPHHL ([1]; 70 g ai/ha): 100%
- Post-emergent Weed Control ECHCG ([2]; 70 g ai/ha): 90%
- Post-emergent Weed Control ABUTH ([3]; 70 g ai/ha): 95%
- Post-emergent Weed Control CHEAL ([4]; 70 g ai/ha): 100%
- Post-emergent Weed Control ORYSA ([5]; 70 g ai/ha): 75%
